Data: patent publication US6337346B1 (University of North Carolina at Chapel Hill, priority 1998, dated 2002)
≈ marks a conversion by molar mass, not a printed value. Where two headings read alike, the source gives them in different places.

How the values were obtained:
KB cells [1] = conditions: cited from earlier work; for ED50: KB cells, background, numbering of Examples 1-13
SK-MEL-28 = experiment: NCI in vitro disease-oriented tumor cells screen; type: cell-based, human; conditions: Homo sapiens; Melanoma SK-MEL-28; Table 2; average of at least two testings; read-out: Cytotoxicity log GI50 (converted)
From the text: (§1) (Activity is defined as log GI50<−4 where GI50 is the molar concentration causing 50% cell growth inhibition).

MALME-3M = experiment: NCI in vitro disease-oriented tumor cells screen; type: cell-based, human; conditions: Homo sapiens; Melanoma MALME-3M; Table 2; average of at least two testings; read-out: Cytotoxicity log GI50 (converted)
From the text: as §1

BT-549 = experiment: NCI in vitro disease-oriented tumor cells screen; type: cell-based, human; conditions: Homo sapiens; Breast Cancer BT-549; Table 2; average of at least two testings; read-out: Cytotoxicity log GI50 (converted)
From the text: as §1

LOX IMVI = experiment: NCI in vitro disease-oriented tumor cells screen; type: cell-based, human; conditions: Homo sapiens, Melanoma LOX IMVI, average of at least two testings, read-out: Cytotoxicity log GI50 (converted)
From the text: as §1

MDA-MB-435 = experiment: NCI in vitro disease-oriented tumor cells screen; type: cell-based, human; conditions: Homo sapiens, Breast Cancer MDA-MB-435, average of at least two testings, read-out: Cytotoxicity log GI50 (converted)
From the text: as §1

human tumor cell lines [2] = system: human tumor cell lines
From the text: as §1

HS 578T = experiment: NCI in vitro disease-oriented tumor cells screen; type: cell-based, human; conditions: Homo sapiens; Breast Cancer HS 578T; Table 2; average of at least two testings; read-out: Cytotoxicity log GI50 (converted)
From the text: as §1

M14 = experiment: NCI in vitro disease-oriented tumor cells screen; type: cell-based, human; conditions: Homo sapiens; Melanoma M14; Table 2; average of at least two testings; read-out: Cytotoxicity log GI50 (converted)
From the text: as §1

OVCAR-8 = experiment: NCI in vitro disease-oriented tumor cells screen; type: cell-based, human; conditions: Homo sapiens; Ovarian Cancer OVCAR-8; Table 2; average of at least two testings; read-out: Cytotoxicity log GI50 (converted)
From the text: as §1

UACC-257 = experiment: NCI in vitro disease-oriented tumor cells screen; type: cell-based, human; conditions: Homo sapiens; Melanoma UACC-257; Table 2; average of at least two testings; read-out: Cytotoxicity log GI50 (converted)
From the text: as §1

SK-MEL-2 = experiment: NCI in vitro disease-oriented tumor cells screen; type: cell-based, human; conditions: Homo sapiens; Melanoma SK-MEL-2; Table 2; average of at least two testings; read-out: Cytotoxicity log GI50 (converted)
From the text: as §1

MDA-N = experiment: NCI in vitro disease-oriented tumor cells screen; type: cell-based, human; conditions: Homo sapiens, Breast Cancer MDA-N, average of at least two testings, read-out: Cytotoxicity log GI50 (converted)
From the text: as §1

human tumor cell lines [3] = experiment: NCI in vitro screen, mean over all cell lines tested; conditions: Homo sapiens, read-out: Cytotoxicity log GI50, Mean Value (converted)
From the text: as §1

OVCAR-3 = experiment: NCI in vitro disease-oriented tumor cells screen; type: cell-based, human; conditions: Homo sapiens, Ovarian Cancer OVCAR-3, average of at least two testings, read-out: Cytotoxicity log GI50 (converted)
From the text: as §1

SK-MEL-5 = experiment: NCI in vitro disease-oriented tumor cells screen; type: cell-based, human; conditions: Homo sapiens, Melanoma SK-MEL-5, average of at least two testings, read-out: Cytotoxicity log GI50 (converted)
From the text: as §1

UACC-62 = experiment: NCI in vitro disease-oriented tumor cells screen; type: cell-based, human; conditions: Homo sapiens; Melanoma UACC-62; Table 2; average of at least two testings; read-out: Cytotoxicity log GI50 (converted)
From the text: as §1

HL-60(TB) = experiment: NCI in vitro disease-oriented tumor cells screen; type: cell-based, human; conditions: Homo sapiens; Leukemia HL-60(TB); Table 2; average of at least two testings; read-out: Cytotoxicity log GI50 (converted)
From the text: as §1

NCI-H522 = experiment: NCI in vitro disease-oriented tumor cells screen; type: cell-based, human; conditions: Homo sapiens; Non-Small Cell Lung Cancer NCI-H522; Table 2; average of at least two testings; read-out: Cytotoxicity log GI50 (converted)
From the text: as §1

NCI-H23 = experiment: NCI in vitro disease-oriented tumor cells screen; type: cell-based, human; conditions: Homo sapiens, Non-Small Cell Lung Cancer NCI-H23, average of at least two testings, read-out: Cytotoxicity log GI50 (converted)
From the text: as §1

KB cells [4] = experiment: Preliminary KB cell assay (cytotoxicity); type: cell-based; conditions: Homo sapiens, numbering of Examples 14-16, read-out: ED50 (the source's name)
Procedure: Many anthraquinones, including mitoxantrone (1), show antineoplastic activity (Zee-Cheng, R. Y.; Podrebarac, E. G; Menon, C. S.; Cheng, C. C. J. Med. Chem. 1979, 22, 501-505). In addition, the natural product 2-acetyl-4H, 9H-naphtho[2,3-b]furan-4,9-dione (2) isolated from Tabebuia cassinoids (Lam.) DC.
The unsubstituted (3), two mono-acetyl (5, 6), and two di-acetyl (9, 10) derivatives were tested for cytotoxicity in a preliminary KB cell assay.

NCI-H460 = experiment: NCI in vitro human tumor cell line assay; type: cell-based; conditions: Non-Small Cell Lung Cancer NCI-H460, Table 3 (numbering of Examples 14-16), average of at least two testings, read-out: Cytotoxicity log GI50 (converted)
NCI-H552 = experiment: NCI in vitro human tumor cell line assay; type: cell-based; conditions: Non-Small Cell Lung Cancer NCI-H552, Table 3 (numbering of Examples 14-16), average of at least two testings, read-out: Cytotoxicity log GI50 (converted)
IGROV1 = experiment: NCI in vitro human tumor cell line assay; type: cell-based; conditions: IGROV-1, Ovarian Cancer IGROV1, Table 3 (numbering of Examples 14-16), average of at least two testings, read-out: Cytotoxicity log GI50 (converted)
CCRF-CEM = experiment: NCI in vitro human tumor cell line assay; type: cell-based; conditions: Leukemia CCRF-CEM, Table 3 (numbering of Examples 14-16), average of at least two testings, read-out: Cytotoxicity log GI50 (converted)
MOLT-4 = experiment: NCI in vitro human tumor cell line assay; conditions: MOLT-4, read-out: Cytotoxicity log GI50 (converted)
SF-539 = experiment: NCI in vitro human tumor cell line assay; type: cell-based; conditions: CNS Cancer SF-539, Table 3 (numbering of Examples 14-16), average of at least two testings, read-out: Cytotoxicity log GI50 (converted)
SNB-19 = experiment: NCI in vitro human tumor cell line assay; type: cell-based; conditions: CNS Cancer SNB-19, Table 3 (numbering of Examples 14-16), average of at least two testings, read-out: Cytotoxicity log GI50 (converted)
MCF 7 = experiment: NCI in vitro human tumor cell line assay; type: cell-based; conditions: MCF7, Breast Cancer MCF 7, Table 3 (numbering of Examples 14-16), average of at least two testings, read-out: Cytotoxicity log GI50 (converted)
MCF 7/ADR-RES = experiment: NCI in vitro human tumor cell line assay; type: cell-based; conditions: MCF7, Breast Cancer MCF 7/ADR-RES, Table 3 (numbering of Examples 14-16), average of at least two testings, read-out: Cytotoxicity log GI50 (converted)
SW-620 = experiment: NCI in vitro human tumor cell line assay; type: cell-based; conditions: Colon Cancer SW-620, Table 3 (numbering of Examples 14-16), average of at least two testings, read-out: Cytotoxicity log GI50 (converted)
HCT-15 = experiment: NCI in vitro human tumor cell line assay; type: cell-based; conditions: Colon Cancer HCT-15, Table 3 (numbering of Examples 14-16), average of at least two testings, read-out: Cytotoxicity log GI50 (converted)
[5] = Table 2 (numbering of Examples 1-13)
[6] = Table 3 (numbering of Examples 14-16)

Structure (SMILES): O=C1c2ccccc2C(=O)c2sccc21 [Compound 4, naphtho[2,3-b]thiophene-4,9-dione]
- ED50 (KB cells [1]): 1.4 µg/mL (≈ 6.53 µM)

Structure (SMILES): CC(=O)OC(C)c1cc2c(s1)C(=O)c1sccc1C2=O (stereo not drawn) [Compound 21, 2-(1′-Acetoxyethyl)-4,8-dihydrobenzo[1,2-b:5,4-b′]dithiophene-4,8-dione]
- GI50 (SK-MEL-28): 646 nM
- GI50 (MALME-3M): 120 nM
- GI50 (BT-549): 282 nM
- GI50 (LOX IMVI; [5]): 209 nM
- GI50 (MDA-MB-435; [5]): 182 nM
- overall cytotoxicity / potency (in words) (human tumor cell lines [2]): among the least active
- melting point: 165 to 166 °C
- GI50 (HS 578T): 513 nM
- GI50 (M14): 162 nM
- GI50 (OVCAR-8): 1410 nM
- GI50 (UACC-257): 214 nM
- GI50 (SK-MEL-2): 417 nM
- GI50 (MDA-N; [5]): 19.1 nM
- GI50 (human tumor cell lines [3]): 794 nM
- GI50 (OVCAR-3; [5]): 490 nM
- GI50 (SK-MEL-5; [5]): 107 nM
- GI50 (UACC-62): 1380 nM
- GI50 (HL-60(TB)): 1740 nM
- GI50 (NCI-H522): 871 nM
- GI50 (NCI-H23; [5]): 219 nM

Structure (SMILES): O=C1c2ccccc2C(=O)c2sccc21 [Compound 3, naphtho[2,3-b]thiophene-4,9-dione, reference compound]
- EC50 (KB cells [4]): 6.5 µM

Structure (SMILES): CC(=O)c1cc2c(o1)C(=O)c1ccccc1C2=O [Compound 2, 2-acetyl-4H, 9H-naphtho[2,3-b]furan-4,9-dione]
- EC50 (KB cells [1]; KB cell culture assay, numbering of Examples 14-16, read-out: ED50 (the source's name)): 4.2 µM
- ED50 (KB cells [1]): 2.0 µg/mL (≈ 8.33 µM)

Structure (SMILES): CC(=O)c1cc2c(s1)C(=O)c1ccccc1C2=O [Compound 5, 2-Acetyl-naphtho[2,3-b]thiophene-4,9-dione]
- GI50 (NCI-H460): 457 nM
- GI50 (NCI-H552): 407 nM
- GI50 (IGROV1): 1780 nM
- GI50 (LOX IMVI; [6]): 347 nM
- GI50 (MDA-MB-435; [6]): 339 nM
- melting point: 139 to 140 °C
- GI50 (CCRF-CEM): 1000 nM
- GI50 (MOLT-4): 2040 nM
- GI50 (SF-539): 759 nM
- GI50 (SNB-19): 501 nM
- GI50 (MCF 7): 1700 nM
- GI50 (MCF 7/ADR-RES): 1910 nM
- EC50 (KB cells [4]): ~1.5 µM
- GI50 (SW-620): 457 nM
- GI50 (MDA-N; [6]): 1200 nM
- GI50 (human tumor cell lines [3]): 1950 nM
- GI50 (OVCAR-3; [6]): 501 nM
- GI50 (HCT-15): 708 nM
- GI50 (SK-MEL-5; [6]): 347 nM
- ED50 (KB cells [1]): 0.4 µg/mL (≈ 1.56 µM)
- GI50 (NCI-H23; [6]): 447 nM

Structure (SMILES): CC(O)c1cc2c(s1)C(=O)c1sccc1C2=O (stereo not drawn) [Compound 20, 2-(1′-Hydroxyethyl)-4,8-dihydrobenzo[1,2-b:5,4-b′]dithiophene-4,8-dione]
- GI50 (SK-MEL-28): 38.9 nM
- GI50 (MALME-3M): 19.1 nM
- GI50 (BT-549): 34.7 nM
- GI50 (LOX IMVI; [5]): 24 nM
- GI50 (MDA-MB-435; [5]): 16.2 nM
- overall cytotoxicity / potency (in words) (human tumor cell lines [2]): excellent overall cytotoxicity
- melting point: 170 to 172 °C
- GI50 (HS 578T): 57.5 nM
- GI50 (M14): 14.8 nM
- GI50 (OVCAR-8): 162 nM
- GI50 (UACC-257): 18.2 nM
- GI50 (SK-MEL-2): 30.9 nM
- GI50 (MDA-N; [5]): 18.6 nM
- GI50 (human tumor cell lines [3]): 135 nM
- GI50 (OVCAR-3; [5]): 117 nM
- GI50 (SK-MEL-5; [5]): 13.5 nM
- GI50 (UACC-62): 22.4 nM
- GI50 (HL-60(TB)): 69.2 nM
- GI50 (NCI-H522): 123 nM
- GI50 (NCI-H23; [5]): 15.5 nM

Structure (SMILES): O=C1c2c(O)ccc(O)c2C(=O)c2c(NCCNCCO)ccc(NCCNCCO)c21 [Compound 1, mitoxantrone]
- ED50 (KB cells [1]): 1.0 µg/mL (≈ 2.25 µM)
